pIC50: −log10 of the molar value.
How the values were obtained:
[1] = Selectivity for FLAG-tagged human mTOR over PI3Kalpha
[2] = target: Serine/threonine-protein kinase mTOR (Homo sapiens, UniProt P42345); experiment: Inhibition of FLAG-tagged human mTOR by DELFIA method
[3] = test system: LNCaP; experiment: Growth inhibition of human LNCAP cells after 3 days by MTS method; type: functional, cell-based; conditions: 72 h
[4] = target: Phosphatidylinositol 4,5-bisphosphate 3-kinase catalytic subunit alpha isoform (Homo sapiens, UniProt P42336); experiment: Inhibition of PI3Kalpha
[5] = target: T1, Phosphatidylinositol 4,5-bisphosphate 3-kinase catalytic subunit delta isoform (Homo sapiens, UniProt O00329); experiment: Inhibition of PI3Kdelta
T1 sequence (O00329 whole entry): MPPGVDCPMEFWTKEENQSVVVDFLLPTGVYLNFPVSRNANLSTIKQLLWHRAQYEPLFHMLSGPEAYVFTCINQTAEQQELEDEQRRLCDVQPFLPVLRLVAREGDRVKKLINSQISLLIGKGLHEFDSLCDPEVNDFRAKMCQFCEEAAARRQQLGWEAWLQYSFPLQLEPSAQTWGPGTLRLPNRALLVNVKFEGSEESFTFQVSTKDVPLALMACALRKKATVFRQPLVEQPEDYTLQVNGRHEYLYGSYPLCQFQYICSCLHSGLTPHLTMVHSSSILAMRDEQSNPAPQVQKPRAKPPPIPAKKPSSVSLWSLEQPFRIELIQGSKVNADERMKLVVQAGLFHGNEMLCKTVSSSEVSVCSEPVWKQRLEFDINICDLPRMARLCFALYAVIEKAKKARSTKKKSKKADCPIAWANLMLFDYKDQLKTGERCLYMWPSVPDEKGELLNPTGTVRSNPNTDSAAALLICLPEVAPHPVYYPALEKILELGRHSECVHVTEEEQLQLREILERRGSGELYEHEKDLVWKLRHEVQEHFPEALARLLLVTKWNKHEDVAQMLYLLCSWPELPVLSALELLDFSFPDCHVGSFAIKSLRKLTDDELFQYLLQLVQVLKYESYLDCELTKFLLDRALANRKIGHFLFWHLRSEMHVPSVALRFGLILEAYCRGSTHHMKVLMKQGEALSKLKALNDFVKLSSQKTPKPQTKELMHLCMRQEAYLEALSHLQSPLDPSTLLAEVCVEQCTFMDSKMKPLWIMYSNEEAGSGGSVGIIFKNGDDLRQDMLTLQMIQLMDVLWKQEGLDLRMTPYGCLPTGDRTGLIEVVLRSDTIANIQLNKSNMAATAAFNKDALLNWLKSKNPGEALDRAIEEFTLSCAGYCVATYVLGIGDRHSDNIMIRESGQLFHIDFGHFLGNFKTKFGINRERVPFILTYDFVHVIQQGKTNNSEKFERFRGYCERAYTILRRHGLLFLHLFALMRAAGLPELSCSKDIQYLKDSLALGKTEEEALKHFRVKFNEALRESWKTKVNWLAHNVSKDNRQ

[6] = target: Phosphatidylinositol 4,5-bisphosphate 3-kinase catalytic subunit beta isoform (Homo sapiens, UniProt P42338); experiment: Inhibition of PI3Kbeta
Sequence of Phosphatidylinositol 4,5-bisphosphate 3-kinase catalytic subunit beta isoform (P42338 whole entry, canonical isoform): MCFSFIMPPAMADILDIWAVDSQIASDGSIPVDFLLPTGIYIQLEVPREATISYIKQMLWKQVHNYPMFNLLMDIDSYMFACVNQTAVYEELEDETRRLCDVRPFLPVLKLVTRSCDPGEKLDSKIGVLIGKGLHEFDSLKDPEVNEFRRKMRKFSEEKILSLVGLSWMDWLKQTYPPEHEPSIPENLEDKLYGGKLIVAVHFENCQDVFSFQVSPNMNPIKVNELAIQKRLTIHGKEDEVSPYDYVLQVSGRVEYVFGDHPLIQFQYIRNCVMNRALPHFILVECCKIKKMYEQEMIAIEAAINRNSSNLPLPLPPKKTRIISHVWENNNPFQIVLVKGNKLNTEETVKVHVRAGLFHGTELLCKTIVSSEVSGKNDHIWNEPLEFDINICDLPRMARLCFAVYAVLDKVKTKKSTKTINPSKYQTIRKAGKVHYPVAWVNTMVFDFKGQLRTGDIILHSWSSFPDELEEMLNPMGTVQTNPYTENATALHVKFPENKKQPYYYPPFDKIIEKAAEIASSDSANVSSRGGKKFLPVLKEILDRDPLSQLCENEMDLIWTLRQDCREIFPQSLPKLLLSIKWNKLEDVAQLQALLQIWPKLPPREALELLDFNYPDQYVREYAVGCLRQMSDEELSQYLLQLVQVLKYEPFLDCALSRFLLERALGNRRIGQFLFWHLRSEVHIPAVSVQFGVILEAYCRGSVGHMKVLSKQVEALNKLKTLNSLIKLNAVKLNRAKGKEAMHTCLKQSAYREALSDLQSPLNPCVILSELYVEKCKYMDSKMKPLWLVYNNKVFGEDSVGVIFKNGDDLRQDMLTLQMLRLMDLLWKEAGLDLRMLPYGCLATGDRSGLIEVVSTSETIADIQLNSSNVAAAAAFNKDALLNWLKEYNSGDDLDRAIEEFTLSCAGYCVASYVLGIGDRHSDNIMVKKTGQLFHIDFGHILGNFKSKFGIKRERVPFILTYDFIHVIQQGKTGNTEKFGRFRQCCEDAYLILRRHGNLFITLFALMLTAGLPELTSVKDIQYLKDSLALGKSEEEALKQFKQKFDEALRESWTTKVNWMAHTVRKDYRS

Sequence of Phosphatidylinositol 4,5-bisphosphate 3-kinase catalytic subunit alpha isoform (P42336 whole entry, canonical isoform): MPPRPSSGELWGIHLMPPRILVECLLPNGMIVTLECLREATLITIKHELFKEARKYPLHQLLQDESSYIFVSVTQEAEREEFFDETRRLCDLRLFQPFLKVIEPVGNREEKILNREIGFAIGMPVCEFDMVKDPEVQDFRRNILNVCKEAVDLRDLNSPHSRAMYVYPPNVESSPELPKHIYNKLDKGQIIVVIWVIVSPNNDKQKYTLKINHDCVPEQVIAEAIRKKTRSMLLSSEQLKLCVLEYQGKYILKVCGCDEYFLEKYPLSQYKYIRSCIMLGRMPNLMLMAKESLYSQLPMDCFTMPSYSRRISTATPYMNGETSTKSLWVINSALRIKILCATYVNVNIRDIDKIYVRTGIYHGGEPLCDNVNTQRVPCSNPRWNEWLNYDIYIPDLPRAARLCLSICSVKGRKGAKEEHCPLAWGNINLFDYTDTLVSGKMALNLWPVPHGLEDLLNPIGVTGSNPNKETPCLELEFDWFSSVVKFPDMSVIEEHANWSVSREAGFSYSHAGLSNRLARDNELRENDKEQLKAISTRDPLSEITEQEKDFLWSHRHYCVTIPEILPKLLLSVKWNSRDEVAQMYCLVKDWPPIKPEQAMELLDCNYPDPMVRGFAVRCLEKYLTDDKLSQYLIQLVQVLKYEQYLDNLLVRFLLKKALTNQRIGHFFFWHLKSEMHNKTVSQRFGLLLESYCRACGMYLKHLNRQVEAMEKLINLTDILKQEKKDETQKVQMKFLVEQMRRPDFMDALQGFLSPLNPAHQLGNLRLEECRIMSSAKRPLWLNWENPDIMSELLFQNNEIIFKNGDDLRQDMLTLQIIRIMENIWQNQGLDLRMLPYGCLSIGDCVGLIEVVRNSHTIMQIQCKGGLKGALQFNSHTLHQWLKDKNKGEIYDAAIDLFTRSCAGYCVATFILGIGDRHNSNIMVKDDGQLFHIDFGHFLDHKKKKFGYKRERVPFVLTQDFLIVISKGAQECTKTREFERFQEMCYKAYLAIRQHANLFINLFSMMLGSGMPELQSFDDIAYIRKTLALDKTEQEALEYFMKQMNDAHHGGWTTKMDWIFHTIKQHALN

Row | Ratio IC50 [1] | pIC50 [2] | Compound | also measured
1 | 135 | – | COC(=O)N1CCC(n2ncc3c(N4CCOC(C)C4)nc(-c4ccc(NC(=O)Nc5cccnc5)cc4)nc32)CC1 (stereo unspecified) | –
2 | 524 | – | O=C(NCCF)Nc1ccc(-c2nc(N3CCOCC3)c3cnn(CC(F)(F)F)c3n2)cc1 | –
3 | 307 | 8.74 | CCNC(=O)Nc1ccc(-c2nc(N3CCOC[C@@H]3C)c3cnn(C4CCN(C(=O)OCC)CC4)c3n2)cc1 | –
4 | 482 | 8.92 | O=C(Nc1ccc(-c2nc(N3C[C@@H]4C[C@H]3CO4)c3cnn(CC(F)(F)F)c3n2)cc1)Nc1cccnc1 | –
5 | 1410 | 9.32 | CNC(=O)Nc1ccc(-c2nc(N3CC4CCC(C3)O4)c3cnn(C4CCN(Cc5cccnc5)CC4)c3n2)cc1 | –
6 | 4980 | – | CCNC(=O)Nc1ccc(-c2nc(N3CCOC[C@H]3C)c3cnn(C4CCN(C(=O)OCC)CC4)c3n2)cc1 | –
7 | 19400 | – | CNC(=O)Nc1ccc(-c2nc(N3C4CCC3COC4)c3cnn(C4CCN(C(=O)OC)CC4)c3n2)cc1 | –
8 | 3670 | 8.92 | CCOC(=O)N1CCC(n2ncc3c(N4CCOC[C@H]4C)nc(-c4ccc(NC(=O)NCCF)cc4)nc32)CC1 | –
9 | 51 | – | CNC(=O)Nc1ccc(-c2nc(N3C[C@H]4C[C@@H]3CO4)c3cnn(CC(F)(F)F)c3n2)cc1 | –
10 | 26700 | 9.70 | CCNC(=O)Nc1ccc(-c2nc(N3CC4CCC(C3)O4)c3cnn(C4CCN(C(=O)OC)CC4)c3n2)cc1 | pIC50 [3]: 8.05
11 | 1140 | – | O=C(Nc1ccc(-c2nc(N3C4CCC3COC4)c3cnn(CC(F)(F)F)c3n2)cc1)Nc1cccnc1 | –
12 | 1820 | 9.72 | O=C(Nc1ccc(-c2nc(N3CC4CCC(C3)O4)c3cnn(CC(F)(F)F)c3n2)cc1)Nc1cccnc1 | –
13 | 5580 | 9.96 | COC(=O)N1CCC(n2ncc3c(N4CC5CCC(C4)O5)nc(-c4ccc(NC(=O)Nc5cccnc5)cc4)nc32)CC1 | –
14 | 175 | – | COC(=O)N1CCC(n2ncc3c(N4CCOCC4)nc(-c4ccc(NC(=O)Nc5cccnc5)cc4)nc32)CC1 | –
15 | 179 | – | O=C(Nc1ccc(-c2nc(N3C[C@H]4C[C@@H]3CO4)c3cnn(CC(F)(F)F)c3n2)cc1)NC1CC1 | –
16 | 3230 | 9.30 | CNC(=O)Nc1ccc(-c2nc(N3CC4CCC(C3)O4)c3cnn(CC(F)(F)F)c3n2)cc1 | –

Row | Ratio IC50 [1] | pIC50 [2] | Compound | also measured
17 | 11900 | 9.64 | O=C(NCCF)Nc1ccc(-c2nc(N3CC4CCC(C3)O4)c3cnn(CC(F)(F)F)c3n2)cc1 | –
18 | 360 | 8.72 | CCNC(=O)Nc1ccc(-c2nc(N3CCOC(C)C3)c3cnn(C4CCN(C(=O)OC)CC4)c3n2)cc1 (stereo unspecified) | –
19 | 8010 | 9.66 | CNC(=O)Nc1ccc(-c2nc(N3CC4CCC(C3)O4)c3cnn(C4CCN(C(=O)OC)CC4)c3n2)cc1 | –
20 | 380 | – | CNC(=O)Nc1ccc(-c2nc(N3C[C@@H]4C[C@H]3CO4)c3cnn(CC(F)(F)F)c3n2)cc1 | –
21 | 2170 | 8.72 | O=C(Nc1ccc(-c2nc(N3C[C@@H]4C[C@H]3CO4)c3cnn(CC(F)(F)F)c3n2)cc1)NC1CC1 | –
22 | 8890 | – | CCNC(=O)Nc1ccc(-c2nc(N3C4CCC3COC4)c3cnn(C4CCN(C(=O)OC)CC4)c3n2)cc1 | –
23 | 4140 | 9.77 | CCNC(=O)Nc1ccc(-c2nc(N3CCOCC3)c3cnn(C4CCN(C(=O)OCC)CC4)c3n2)cc1 | –
24 | 43 | 9.64 | O=C(Nc1ccc(-c2nc(N3CCOCC3)c3cnn(CC(F)(F)F)c3n2)cc1)Nc1cccnc1 | –
25 | 2420 | – | CNC(=O)Nc1ccc(-c2nc(N3C4CCC3COC4)c3cnn(CC(F)(F)F)c3n2)cc1 | –
26 | 194 | – | CNC(=O)Nc1ccc(-c2nc(N3CCOCC3)c3cnn(CC(F)(F)F)c3n2)cc1 | –
27 | 32 | 9.24 | CCOC(=O)N1CCC(n2ncc3c(N4CCOC[C@@H]4C)nc(-c4ccc(NC(=O)Nc5ccncc5)cc4)nc32)CC1 | –
28 | 6910 | 9.21 | COC(=O)N1CCC(n2ncc3c(N4CC5CCC(C4)O5)nc(-c4ccc(NC(=O)NC5CC5)cc4)nc32)CC1 | pIC50 [4]: 5.36; pIC50 [5]: 5.58; pIC50 [6]: < 5.00
29 | 114 | – | O=C(Nc1ccc(-c2nc(N3C[C@H]4C[C@@H]3CO4)c3cnn(CC(F)(F)F)c3n2)cc1)Nc1cccnc1 | –
30 | 1850 | – | CCOC(=O)N1CCC(n2ncc3c(N4CCOC[C@H]4C)nc(-c4ccc(NC(=O)Nc5ccncc5)cc4)nc32)CC1 | –
31 | 289 | 8.74 | CCOC(=O)N1CCC(n2ncc3c(N4CCOC[C@@H]4C)nc(-c4ccc(NC(=O)NCCF)cc4)nc32)CC1 | –
32 | 116 | 8.64 | CNC(=O)Nc1ccc(-c2nc(N3CCOC(C)C3)c3cnn(C4CCN(C(=O)OC)CC4)c3n2)cc1 (stereo unspecified) | –

Row | Compound | Ratio IC50 [1] | pIC50 [2] | also measured
33 | COC(=O)N1CCC(n2ncc3c(N4C5CCC4COC5)nc(-c4ccc(NC(=O)Nc5cccnc5)cc4)nc32)CC1 | 11100 | 9.80 | –
